Measured values: ChEMBL document CHEMBL3603819, “Targeting zoonotic viruses: Structure-based inhibition of the 3C-like protease from bat coronavirus HKU4--The likely reservoir host to the human coronavirus that causes Middle East Respiratory Syndrome (MERS)” (Bioorg Med Chem, 2015)

These compounds were tested on Tylonycteris bat coronavirus HKU4. Details: at 100 µM.
Cc1ccc(C(C(=O)NC(C)(C)C)N(C(=O)c2ccco2)c2ccc(C(C)(C)C)cc2)cn1 (stereo not drawn) showed an inhibition of 8%. With CC(C)(C)NC(=O)C(c1cccnc1)N(C(=O)c1cccc2c1CCCC2)c1ccc(OCF)cc1 (stereo not drawn) the inhibition was 21%. Compound CC(C)(C)NC(=O)C(c1ccsc1)N(C(=O)Cn1cnc2ccccc21)c1ccc(NS(C)(=O)=O)cc1 (stereo not drawn) has an inhibition of 28%. In the case of CC(C)(C)NC(=O)C(c1cccnc1)N(C(=O)c1ccco1)c1ccc(-c2cccc(F)c2F)cc1 (stereo not drawn), the inhibition was 18%. O=C(NCc1ccccc1)C(c1cccc(F)c1)N(C(=O)Cn1nnc2ccccc21)C12CC3CC(CC(C3)C1)C2 (stereo not drawn) gave an inhibition of 16%. Compound CC(C)(C)NC(=O)C(c1ccsc1)N(C(=O)Cn1nnc2ccccc21)c1ccc(NC(=O)C(C)(C)C)cc1 (stereo not drawn) has an inhibition of 18%. CC(C)(C)C(=O)Nc1ccc(N(Cc2ccsc2)C(=O)Cn2nnc3ccccc32)cc1 gave an inhibition of 67%. In the case of CC(C)(C)NC(=O)C(c1ccsc1)N(C(=O)c1ccco1)C1CC1 (stereo not drawn), the inhibition was 18%. For CC(C)(C)NC(=O)C(c1cccnc1)N(C(=O)c1ccco1)c1ccc(-c2ccnc(F)c2)cc1 (stereo not drawn), the inhibition was 16%. In the case of CC(C)(C)NC(=O)C(c1ccsc1)N(C(=O)c1cccc2c1CCCC2)c1ccc(F)cc1 (stereo not drawn), the inhibition was 17%. CC(C)(C)NC(=O)C(c1cccnc1)N(C(=O)c1coc2ccccc12)c1ccc(C(C)(C)C)cc1 (stereo not drawn) was tested, and the inhibition was 19%. Compound CC(C)(C)NC(=O)C(c1cccnc1)N(C(=O)c1ccc(C(F)(F)F)cn1)C1CC1 (stereo not drawn) has an inhibition of 42%. For CC(C)c1ccc(N(C(=O)Cc2cccnc2)C(C(=O)NC(C)(C)C)c2ccsc2)cc1 (stereo not drawn), the inhibition was 24%. For CC(C)(C)NC(=O)C(c1ccsc1)N(C(=O)c1cccc2c1CCCC2)c1ccc(OCF)cc1 (stereo not drawn), the inhibition was 15%. Work on CC(C)(C)NC(=O)C(c1cccnc1)N(C(=O)c1ncco1)c1ccc(C(C)(C)C)cc1 (stereo not drawn) yielded an inhibition of 30%. In the case of CC(C)(C)NC(=O)C(c1cccnc1)N(C(=O)c1n[nH]c2ccccc12)c1ccc(C(C)(C)C)cc1 (stereo not drawn), the inhibition was 23%. O=C(Cn1nnc2ccccc21)N(Cc1ccsc1)c1ccc(NC(=O)C(F)(F)F)cc1 was tested, and the inhibition was 92%. O=C(Nc1ccc(N(Cc2ccsc2)C(=O)Cn2nnc3ccccc32)cc1)c1ccccc1 showed an inhibition of 90%. With COc1ncc(-c2ccc(N(Cc3ccsc3)C(=O)Cn3nnc4ccccc43)cc2)cn1 the inhibition was 83%. In the case of CC(C)(C)NC(=O)[C@H](c1cccnc1)N(C(=O)c1c[nH]cn1)c1ccc(C(C)(C)C)cc1, the inhibition was 44%. For CC(C)(C)NC(=O)C(c1cccnc1)N(C(=O)Cc1ccccc1)c1ccc(C(C)(C)C)cc1 (stereo not drawn), the inhibition was 20%. In the case of CC(C)(C)NC(=O)C(c1ccsc1)N(C(=O)c1ccc(C#N)cc1)c1ccc(C(C)(C)C)cc1 (stereo not drawn), the inhibition was 18%. CC(C)(C)NC(=O)C(c1cncnc1)N(C(=O)c1c[nH]cn1)c1ccc(C(C)(C)C)cc1 (stereo not drawn) was tested, and the inhibition was 84%. Compound O=C(Cn1nnc2ccccc21)N(Cc1ccsc1)c1ccc(-c2ccncc2)cc1 has an inhibition of 98%. CC(C)(C)c1ccc(N(Cc2cccnc2)C(=O)c2c[nH]cn2)cc1 gave an inhibition of 28%. Cc1nccn1CC(=O)N(c1ccc(N)cc1)C(C(=O)NC(C)(C)C)c1ccsc1 (stereo not drawn) was tested, and the inhibition was 17%. Compound CC(C)(C)NC(=O)C(c1cccnc1)N(C(=O)c1ccco1)c1ccc(-c2ccc(F)c(F)c2)cc1 (stereo not drawn) has an inhibition of 12%. For CC(C)(C)NC(=O)C(c1cccnc1)N(C(=O)c1ccco1)C1CCCCC1 (stereo not drawn), the inhibition was 6%. CC(C)c1ccc(N(C(=O)c2cccc3c2CCCC3)C(C(=O)NC(C)(C)C)c2cccnc2)cc1 (stereo not drawn) was tested, and the inhibition was 25%. CC(=O)Nc1ccc(N(C(=O)Cn2ccnc2C)C(C(=O)NC(C)(C)C)c2ccsc2)cc1 (stereo not drawn) was tested, and the inhibition was 17%. In the case of CC(=O)Nc1ccc(N(C(=O)Cn2cc(-c3ccccc3)nn2)C(C(=O)NC(C)(C)C)c2ccsc2)cc1 (stereo not drawn), the inhibition was 19%. CC(C)(C)NC(=O)C(c1cccnc1)N(C(=O)c1ccco1)c1ccc(-c2ccc(F)cc2F)cc1 (stereo not drawn) was tested, and the inhibition was 16%. CC(C)(C)NC(=O)C(c1cccnc1)N(C(=O)Cc1cccnc1)c1ccc(OCF)cc1 (stereo not drawn) was tested, and the inhibition was 18%. O=C(Nc1ccc(N(Cc2ccsc2)C(=O)Cn2nnc3ccccc32)cc1)C1CCC1 gave an inhibition of 94%. In the case of CC(C)COc1ccc(N(C(=O)c2ccco2)C(C(=O)NC(C)(C)C)c2cccnc2)cc1 (stereo not drawn), the inhibition was 25%. Cc1nc2ccccc2n1CC(=O)N(c1ccc(N)cc1)C(C(=O)NC(C)(C)C)c1ccsc1 (stereo not drawn) gave an inhibition of 14%. CC(C)(C)NC(=O)C(c1cccnc1)N(C(=O)Cc1cccc2ccccc12)c1ccc(F)cc1 (stereo not drawn) showed an inhibition of 22%. CC(C)(C)NC(=O)C(c1cccnc1)N(C(=O)c1ccco1)c1ccc(Cc2ccccc2)cc1 (stereo not drawn) showed an inhibition of 8%. With CCC(C)Oc1ccc(N(C(=O)c2ccco2)C(C(=O)NC(C)(C)C)c2cccnc2)cc1 (stereo not drawn) the inhibition was 20%. CC(C)(C)NC(=O)C(c1cccnc1)N(C(=O)c1ccco1)c1ccc(OCc2ccccc2)cc1 (stereo not drawn) showed an inhibition of 14%. In the case of CC(C)(C)NC(=O)C(c1ccsc1)N(C(=O)Cn1nnc2ccccc21)c1ccc(N)cc1 (stereo not drawn), the inhibition was 64%. Work on CC(C)(C)NC(=O)C(c1cccnc1)N(C(=O)c1cnco1)c1ccc(C(C)(C)C)cc1 (stereo not drawn) yielded an inhibition of 96%. Compound CC(C)(C)NC(=O)C(c1c[nH]cn1)N(C(=O)c1ccco1)c1ccc(C(C)(C)C)cc1 (stereo not drawn) has an inhibition of 9%. CC(C)(C)NC(=O)C(c1cccnc1)N(C(=O)c1ccco1)C12CC3CC(CC(C3)C1)C2 (stereo not drawn) showed an inhibition of 18%. With CC(C)(C)NC(=O)C(c1cccnc1)N(C(=O)c1cccnc1)c1ccc(C(C)(C)C)cc1 (stereo not drawn) the inhibition was 13%. With O=C(Cn1nnc2ccccc21)N(Cc1ccsc1)c1ccc(-c2ccccc2)cc1 the inhibition was 21%. Compound O=C(Nc1ccc(N(C(=O)Cn2nnc3ccccc32)C(C(=O)NCc2ccccc2)c2cccc(F)c2)cc1)C1CCC1 (stereo not drawn) has an inhibition of 74%. CC(C)(C)NC(=O)C(c1cccnc1)N(C(=O)c1n[nH]c2ccccc12)C1CC1 (stereo not drawn) was tested, and the inhibition was 21%. For CC(C)(C)NC(=O)C(c1ccsc1)N(C(=O)c1n[nH]c2ccccc12)c1ccc(C(C)(C)C)cc1 (stereo not drawn), the inhibition was 16%. In the case of CC(C)c1ccc(N(C(=O)c2n[nH]c3ccccc23)C(C(=O)NC(C)(C)C)c2ccsc2)cc1 (stereo not drawn), the inhibition was 11%. CC(C)(C)NC(=O)C(c1ccsc1)N(C(=O)Cn1nnc2ccccc21)c1ccc(NC(=O)C2CCCCC2)cc1 (stereo not drawn) showed an inhibition of 21%. CC(C)(C)NC(=O)C(c1cccnc1)N(C(=O)Cc1cccnc1)c1ccc(C(C)(C)C)cc1 (stereo not drawn) gave an inhibition of 23%. For CC(C)(C)NC(=O)C(c1cccnc1)N(C(=O)c1ccc(C(F)(F)F)nc1)c1ccc(C(C)(C)C)cc1 (stereo not drawn), the inhibition was 15%. O=C(Nc1ccc(N(C(=O)Cn2nnc3ccccc32)C(C(=O)NCc2ccccc2)c2cccc(F)c2)cc1)C1CC1 (stereo not drawn) gave an inhibition of 71%. Work on CC(C)(C)NC(=O)C(c1cccnc1)N(C(=O)Cc1c[nH]c2ccccc12)c1ccc(F)cc1 (stereo not drawn) yielded an inhibition of 41%. With CC(C)(C)NC(=O)C(c1cccnc1)N(C(=O)c1ccco1)c1ccc(-c2cccc(C#N)c2)cc1 (stereo not drawn) the inhibition was 16%. CC(C)(C)NC(=O)C(c1cncnc1)N(C(=O)c1cnco1)c1ccc(C(C)(C)C)cc1 (stereo not drawn) was tested, and the inhibition was 58%. Compound CC(C)c1ccc(N(C(=O)c2ccc(C(F)(F)F)nc2)C(C(=O)NC(C)(C)C)c2ccsc2)cc1 (stereo not drawn) has an inhibition of 15%. Cc1nc2ccccc2n1CC(=O)N(c1ccc(NS(C)(=O)=O)cc1)C(C(=O)NC(C)(C)C)c1ccsc1 (stereo not drawn) showed an inhibition of 13%. CC(C)(C)NC(=O)C(c1ccsc1)N(C(=O)Cn1cnc2ccccc21)c1ccc(N)cc1 (stereo not drawn) gave an inhibition of 18%. In the case of CC(C)(C)NC(=O)C(c1cccnc1)N(C(=O)c1c[nH]cn1)c1ccc(C(C)(C)C)cc1 (racemic), the inhibition was 94%. Compound CC(C)(C)NC(=O)C(c1cccnc1)N(C(=O)Cc1cccnc1)C1CC1 (stereo not drawn) has an inhibition of 48%. With CC(C)(C)NC(=O)C(c1cccnc1)N(C(=O)c1cccc2c1CCCC2)c1ccc(C(C)(C)C)cc1 (stereo not drawn) the inhibition was 21%. CC(C)(C)NC(=O)C(c1cccnc1)N(C(=O)c1ccc[nH]1)c1ccc(C(C)(C)C)cc1 (stereo not drawn) showed an inhibition of 16%. In the case of CC(C)c1ccc(N(C(=O)Cc2c[nH]c3ccccc23)C(C(=O)NC(C)(C)C)c2ccsc2)cc1 (stereo not drawn), the inhibition was 25%. With CC(C)c1ccc(N(C(=O)c2ccc(C(F)(F)F)nc2)C(C(=O)NC(C)(C)C)c2cccnc2)cc1 (stereo not drawn) the inhibition was 18%. CC(C)C(=O)Nc1ccc(N(Cc2ccsc2)C(=O)Cn2nnc3ccccc32)cc1 was tested, and the inhibition was 92%. Work on CC(C)(C)NC(=O)C(c1ccsc1)N(C(=O)Cc1cccnc1)c1ccc(C(C)(C)C)cc1 (stereo not drawn) yielded an inhibition of 23%. With CC(C)(C)NC(=O)C(c1ccsc1)N(C(=O)Cn1nnc2ccccc21)c1ccc(NC(=O)C2CCC2)cc1 (stereo not drawn) the inhibition was 20%. Work on CC(C)(C)NC(=O)C(c1cccnc1)N(C(=O)c1ccco1)c1ccc(Oc2ccccc2)cc1 (stereo not drawn) yielded an inhibition of 19%. Compound CC(C)c1ccc(N(C(=O)c2ccc(C#N)cc2)C(C(=O)NC(C)(C)C)c2ccsc2)cc1 (stereo not drawn) has an inhibition of 21%. With CC(C)(C)NC(=O)C(c1ccsc1)N(C(=O)Cn1nnc2ccccc21)c1ccc(NC(=O)c2cccs2)cc1 (stereo not drawn) the inhibition was 26%. CC(C)C(=O)Nc1ccc(N(Cc2ccsc2)C(=O)Cn2ccnn2)cc1 showed an inhibition of 63%. Work on CC(C)(C)NC(=O)C(c1cccnc1)N(C(=O)c1ccco1)c1ccc(F)cc1 (stereo not drawn) yielded an inhibition of 41%. For O=C(Nc1ccc(N(Cc2ccsc2)C(=O)Cn2nnc3ccccc32)cc1)C1CCCCC1, the inhibition was 88%. CC(C)(C)NC(=O)C(c1cncnc1)N(C(=O)c1ccco1)c1ccc(C(C)(C)C)cc1 (stereo not drawn) gave an inhibition of 16%. CC(=O)Nc1ccc(N(C(=O)Cn2ccnn2)C(C(=O)NC(C)(C)C)c2ccsc2)cc1 (stereo not drawn) was tested, and the inhibition was 27%. For O=C(Cn1nnc2ccccc21)N(Cc1ccsc1)c1ccc(NCc2ccccc2)cc1, the inhibition was 64%. CC(C)Oc1ccc(N(C(=O)c2ccco2)C(C(=O)NC(C)(C)C)c2cccnc2)cc1 (stereo not drawn) was tested, and the inhibition was 13%. In the case of Cc1nccn1CC(=O)N(c1ccc(NC(=O)C(C)C)cc1)C(C(=O)NC(C)(C)C)c1ccsc1 (stereo not drawn), the inhibition was 18%. Compound CC(C)(C)NC(=O)C(c1cccnc1)N(C(=O)c1ccccc1O)c1ccc(C(C)(C)C)cc1 (stereo not drawn) has an inhibition of 11%. CC(C)c1ccc(N(C(=O)c2cccc3c2CCCC3)C(C(=O)NC(C)(C)C)c2ccsc2)cc1 (stereo not drawn) was tested, and the inhibition was 20%. For CC(C)C(=O)Nc1ccc(N(Cc2ccsc2)C(=O)Cn2cc([Si](C)(C)C)nn2)cc1, the inhibition was 15%. With CC(C)C(=O)Nc1ccc(N(C(=O)Cn2nnc3ccccc32)C(C(=O)NC(C)(C)C)c2ccsc2)cc1 (stereo not drawn) the inhibition was 76%. For CC(C)c1ccc(N(C(=O)Cc2c[nH]c3ccccc23)C(C(=O)NC(C)(C)C)c2cccnc2)cc1 (stereo not drawn), the inhibition was 78%. With CC(C)(C)NC(=O)C(c1cccnc1)N(C(=O)Cc1cnc[nH]1)c1ccc(C(C)(C)C)cc1 (stereo not drawn) the inhibition was 24%. With CC(C)(C)NC(=O)C(c1ccsc1)N(C(=O)c1ccc(C(F)(F)F)cn1)c1ccc(F)cc1 (stereo not drawn) the inhibition was 19%. Work on CC(C)(C)NC(=O)C(c1cccnc1)N(C(=O)Cc1c[nH]c2ccccc12)c1ccc(C(C)(C)C)cc1 (stereo not drawn) yielded an inhibition of 79%.
